For the assay, the system named is 292921-168-R-J2-PDC KRAS tumor spheroid viability. Kind of assay: Anticancer human tumor 292921-168-R-J2-PDC patient-derived pancreatic carcinoma cell line growth inhibition [KRAS2]. The following applies: spheroids with HUVEC and MSC; for viability, T/C: stronger effect = lower value. An excerpt: Multicellular complex tumor spheroid response to RAS pathway inhibitors in combination with a targeted agents in patient-derived cell lines with oncogenic KRAS variants from multiple cancer types
A high-throughput screen of multi-cell type tumor spheroids was designed to identify active combinations of targeted small molecules and KRAS pathway inhibitors. Complex spheroids include a stromal component modeled by human endothelial cells (HUVEC) and fibroblasts modeled by human mesenchymal stem cells (MSCs). The concentration ranges selected for each drug and investigational agent were based upon clinically achievable concentrations if the clinical Cmax of the agent was known.
Compounds. The drugs and investigational agents: BI-3406 (NSC825286), BAY-293 (NSC824723), batoprotafib (TNO155; NSC825523), sotorasib (AMG 510; NSC818433), MRTX1257 (NSC819558), elimusertib (BAY 1895344; NSC800525), molibresib (GSK525762; NSC774829), temuterkib (LY3214996; NSC803410), venetoclax (NSC766270), alisertib (NSC759677), olaparib (NSC753686), talazoparib (NSC767125), erdafitinib (NSC781556), ipatasertib (NSC767898), cabozantinib (NSC761068), nintedanib (NSC756659), abemaciclib (NSC768073), docetaxel (NSC628503), trametinib (NSC758246), and sapanisertib (NSC764658) were obtained from the National Cancer Institute (NCI) Developmental Therapeutics Program Chemical Repository. The FDA-approved anticancer drug set is available from the Developmental Therapeutics Program. […] The stock solutions were prepared in dimethyl sulfoxide (DMSO, Sigma-Aldrich, St. Louis, MO, cat. D2650) at 800-fold the tested concentration and stored at -70 degrees C prior to their use. All drugs and investigational agents were tested over a range starting from a high concentration at or near the clinical Cmax and decreasing in half-log increments. If the clinical Cmax for an agent had not been determined, the highest concentration tested was 10 microM.
Cell Culture. All cells were maintained in an incubator at 37 degrees C and 5% CO2 with 95% humidity. The PDC lines were cultured according to standard operating procedures established by the NCI PDMR (https://pdmr.cancer.gov/sops/default.htm). Briefly, all PDCs were thawed and cultured in Matrigel-coated flasks prepared with a working solution of 1X Ham's F-12 nutrient mix, without supplementation (Invitrogen, Waltham, MA, cat. 11765054), 100 U/mL penicillin-streptomycin (Invitrogen, cat. 15140122), and 2.5% Matrigel (Corning Inc., Corning, NY, cat. 354248) for the first three passages. All PDCs were cultured in complete DMEM/F-12 media containing advanced DMEM/F-12 (Invitrogen, cat. 12634028), 4.9% defined fetal bovine serum, heat inactivated (HyClone Laboratories Inc., Logan, UT, cat. SH30070.03HI), 389 ng/mL hydrocortisone (Sigma-Aldrich, cat. H4001), 9.7 ng/mL human EGF recombinant protein (Invitrogen, cat. PHG0313), 23.4 microg/mL adenine (Sigma-Aldrich, cat. A2786), 97.3 U/mL penicillin-streptomycin (Invitrogen, cat. 15140122), 1.9 mM L-glutamine (Invitrogen, cat. 25030081), and 9.7 microM Y-27632 dihydrochloride (Tocris Bioscience, Bristol, United Kingdom, cat. 1254). The PDCs were cultured in complete DMEM/F12 media without 9.7 microM Y-27632 dihydrochloride for at least two passages prior to the screen. The established cell line HOP-62 was cultured in RPMI 1640 medium, HEPES (Invitrogen, cat. 22400105) with 10% defined fetal bovine serum (HyClone Laboratories Inc., cat. SH30070.03) and 2 mM L-glutamine (Invitrogen, cat. 25030081). The pooled donor HUVEC were cultured in endothelial cell growth medium 2 (PromoCell, Heidelberg, Germany, cat. C-22011) and the hMSC were cultured in mesenchymal stem cell growth medium 2 (PromoCell, cat. C-28009). For all experiments, HUVEC and hMSC were used at passages </=5, while the malignant cell lines were used at passages </=15. […]

Two compounds from PubChem BioAssay AID1963870 (Molecular Pharmacology Branch, DTP, NCI, 2024) can be followed below.

As usually defined, the IC50 is the concentration that gives 50% inhibition. Usually viability, T/C stands for the result in the treated group divided by that in the control group, in per cent.

Bounds are passed on as bounds.
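Further: drug exposure lasted seven days after spheroids formed for three days.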
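Wherever viability, T/C is given: percent of DMSO vehicle control viability which is 100%.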

Turning to `CC(=O)Nc1cccc(-n2c(=O)n(C3CC3)c(=O)c3c(Nc4ccc(I)cc4F)n(C)c(=O)c(C)c32)c1` + CNCc1ccccc1-c1csc(C(C)Nc2nc(C)nc3cc(OC)c(OC)cc23)c1, the IC50 reads like this: (curve of first compound, second compound 0.1 µM) 0.207 nM; (curve of first compound, second compound 0.316 µM) 0.178 nM; (curve of first compound, second compound 1 µM) 0.124 nM; (curve of first compound, second compound 3.16 µM) less than 0.1 nM; (curve of first compound, second compound 10 µM) less than 0.1 nM. Moreover, the viability, T/C (second compound 0.1 µM, first compound 0.0001 µM) was 66%; the viability, T/C (second compound 0.1 µM, first compound 0.000316 µM) is 41.9%; the viability, T/C (second compound 0.1 µM, first compound 0.001 µM) is 20.2%; the viability, T/C (second compound 0.1 µM, first compound 0.00316 µM) was 17.5%; the viability, T/C (second compound 0.1 µM, first compound 0.01 µM) was 12%; the viability, T/C (second compound 0.1 µM, first compound 0.0316 µM) was 8.12%. The viability, T/C is, setting by setting: (second compound 0.316 µM, first compound 0.0001 µM) 64.5%; (second compound 0.316 µM, first compound 0.000316 µM) 35.3%; (second compound 0.316 µM, first compound 0.001 µM) 21.8%; (second compound 0.316 µM, first compound 0.00316 µM) 16.3%; (second compound 0.316 µM, first compound 0.01 µM) 12.3%; (second compound 0.316 µM, first compound 0.0316 µM) 8.64%. For the same compound, the viability, T/C was 55% (second compound 1 µM, first compound 0.0001 µM); 28.2% (second compound 1 µM, first compound 0.000316 µM); 17.9% (second compound 1 µM, first compound 0.001 µM); 13.7% (second compound 1 µM, first compound 0.00316 µM); 10.4% (second compound 1 µM, first compound 0.01 µM); 8.11% (second compound 1 µM, first compound 0.0316 µM). Moreover, the viability, T/C (second compound 3.16 µM, first compound 0.0001 µM) was 0.21%; the viability, T/C (second compound 3.16 µM, first compound 0.000316 µM) was 0.07%; the viability, T/C (second compound 3.16 µM, first compound 0.001 µM) is 0.05%; the viability, T/C (second compound 3.16 µM, first compound 0.00316 µM) is 0.04%; the viability, T/C (second compound 3.16 µM, first compound 0.01 µM) is 0.04%; the viability, T/C (second compound 3.16 µM, first compound 0.0316 µM) is 0.15%. Also, the viability, T/C reads like this: (second compound 10 µM, first compound 0.0001 µM) 0.11%; (second compound 10 µM, first compound 0.000316 µM) 0.11%; (second compound 10 µM, first compound 0.001 µM) 0.11%; (second compound 10 µM, first compound 0.00316 µM) 0.12%; (second compound 10 µM, first compound 0.01 µM) 0.12%; (second compound 10 µM, first compound 0.0316 µM) 0.2%.
For the compound `CC(=O)OC12COC1CC(O)C1(C)C(=O)C(O)C3=C(C)C(OC(=O)C(O)C(NC(=O)OC(C)(C)C)c4ccccc4)CC(O)(C(OC(=O)c4ccccc4)C21)C3(C)C` (configuration not stated), the viability, T/C by setting is: (compound 0.01 µM) 14.3% [middle of 5 runs]; (compound 0.0316 µM) 14.3% [middle of 5 runs]; (compound 0.1 µM) 12.4% [middle of 5 runs]; (compound 0.316 µM) 12.8% [middle of 5 runs]; (compound 1 µM) 13.8% [middle of 5 runs]; (compound 3.16 µM) 17.6% [middle of 5 runs]. In addition, the IC50 (curve of compound) was less than 10 nM.
